{"source": "patent US9358244B2", "about": "“Solid dosage forms of oleyl phosphocholine” (Oblita Therapeutics BVBA, priority 2010, dated 2016)", "key": {"[1]": {"system": "Leishmania infantum (MHOM/MA (BE)/67) amastigotes", "assay": "Curative efficacy against Leishmania infantum in the hamster model, oral 5 days", "type": "in vivo", "conditions": "for Bone marrow % red / Liver % red / Spleen % red: reduction vs VIC; for Bone marrow Mean ± SE of amastigotes per nucleus / Liver Mean ± SE of LDU / Spleen Mean ± SE of LDU: 10 days after last treatment", "method": "Golden hamsters (female, 75 g) were allocated randomly to 7 groups with 8 animals per group. • G1: vehicle infected control (VIC): 200 μl blank vehicle orally 5 days • G2: MIL-PBS: 5×40 mg/kg (=98.1 μmol/kg) orally for 5 days • G3: MIL-PBS: 5×20 mg/kg (=49.1 μmol/kg) orally for 5 days • G4: OlPC-PBS: 5×42.5 mg/kg (=98.1 μmol/kg) orally for 5 days • G5: OlPC-PBS: 5×21.2 mg/kg (=49.1 μmol/kg) orally for 5 days • G6: OlPC-liposomes: 5×2.4 ml/kg (=98.1 μmol/kg) orally for 5 days • G7: OlPC-liposomes: 5×1.2 ml/kg (=49.1 μmol/kg) orally for 5 days Drinking water and food were available ad libitum throughout the experiment. […] Artificial Infection\nLeishmania infantum (MHOM/MA (BE)/67) amastigotes were obtained from the spleen of heavily infected donor hamsters. The total parasite burden was determined on Giemsa-stained smears. Amastigotes in the spleen homogenate were concentrated using two centrifugation steps (low speed (300 rpm) with collection of the supernatant−high speed (4200 rpm) with collection of the pellet). The parasite burdens in the spleen were estimated using the Stauber technique and the amastigote suspension was diluted to prepare the infection inocula for intracardial infection containing 2×10^7 amastigotes/100 μl. At 21 days post infection (=start of treatment), the levels infection were checked in 4 randomly chosen animals by making a smear from a liver biopsy for determination of the parasite burden (cfr. infra).\n• Miltefosine was formulated at 20 mg/ml and 10 mg/ml in PBS and stored at room temperature in the dark. A clear transparent solution was obtained. • OlPC-PBS was formulated at 21.25 mg/ml and 10.63 mg/ml in PBS and stored at room temperature in the dark. A clear transparent solution was obtained. • OlPC-liposome formulation was prepared at 18 mg/ml (dosed at 2.4 ml/kg=120 μl/50 gram). The formulation was diluted 2 times in PBS to obtain a OlPC-formulation of 9 mg/ml (dosed at 1.2 ml/kg=[…])) Treatment\nOral treatment started 21 days after infection (dpi) and was continued for 5 consecutive days. Dosing volume was 100 μl per 50 gram BW (bodyweight).\nParasite Burden: amastigote burdens in the different target organs (liver, spleen, bone-marrow) were determined 10 days after the last treatment (i.e. day 35 of the experiment). The organs of individual animals were weighed (except bone-marrow); impression smears were fixed in methanol and stained with Giemsa for microscopic evaluation of the number of amastigotes per cell by counting a minimum of 500 nuclei1. The results are expressed as Leishman Donovan Units (LDU)=mean number of amastigotes per nucleus×mg organ weight. Percentage reduction as compared to vehicle-treated infected control animals (VIC) is used as a measure for drug activity. Particularly for spleen and bone-marrow, the viability of possible residual burdens was assessed using the promastigote transformation assay."}, "[2]": {"assay": "Compatibility of OlPC with binder in solution", "type": "physicochemical", "text": "The tablets produced presented high levels of friability and high disintegration time. It was observed that the presence of polyvynilpyrrolidone in solution with OlPC induces the formation of an unknown precipitated which indicates the presence of an incompatibility between the two compounds.\nHydroxypropylmethylcellulose was then selected to replace polyvynilpyrrolidone as a binder in the subsequent formulation assays."}, "[3]": {"assay": "Tolerance in treated naturally infected dogs", "type": "in vivo", "conditions": "6 dogs, 4 mg/kg/day orally 14 days", "method": "(§1) The dose of 4 mg/kg/day oleylphosphocholine was used to treat orally during 14 days a cohort of 6 dogs from a shelter naturally infected with L. infantum and classified as clinically sick. The dogs were assessed at the clinical (physical examination and clinic-pathological abnormalities) and parasitological levels at the beginning of the treatment (day 0) and on day 15, 30 and 90."}, "L. infantum": {"system": "L. infantum", "assay": "Treatment of dogs naturally infected with L. infantum, clinical score", "type": "in vivo", "conditions": "4 mg/kg/day orally 14 days", "method": "as §1"}, "[4]": {"assay": "Thermogravimetric analysis (TGA) of OlPC", "type": "physicochemical", "conditions": "with 1% of mass loss, heating rate 10° C./min", "method": "Thermogravimetric Analysis (TGA) measures weight changes in a material as a function of temperature (or time) under a controlled atmosphere. Its principal use includes measurement of a material's thermal stability and composition. The TGA analysis was performed using a HR TGA 2950 (TA Instruments, Leatherhead, UK). Samples (±15 mg) were equilibrated at 50° C. and then heated to 500° C. at a heating rate of 10° C./min and the percentage of weight loss was recorded. The OlPC compound show thermal degradation at 159.27° C. with 1% of mass loss."}, "[5]": {"system": "Leishmania infantum (MHOM/MA (BE)/67) amastigotes", "assay": "Follow up experiment: single versus multiple oral administrations in L. infantum infected hamsters", "type": "in vivo", "conditions": "hamster, total doses 25, 50 and 100 mg/kg oral, liver, spleen, bone marrow", "method": "(§2) In a follow up experiment, the same experimental protocol was used to compare the efficacy of oral oleyl phosphocholine (OlPC) at total doses of 25, 50 and 100 mg/kg when given as single or multiple oral administrations (5×5, 10 and 20 mg/kg, respectively).\n(§3) Female hamsters (n=60) were intracardially infected with 2×10^7 Leishmania infantum (MHOM/MA (BE)/67) amastigotes on day 0. Treatment started at day+21 post infection for 5 consecutive days once daily with a total dose of […] given as single or multiple oral administrations. Amastigote burdens in the different target organs (liver, spleen, bone-marrow) were determined 10 days after the last treatment (day+35). The organs of individual animals were weighed (except bone-marrow); impression smears were fixed in methanol and stained with Giemsa for microscopic evaluation of the number of amastigotes per cell by counting a minimum of 500 nuclei. The results (FIG. 4) are expressed as Leishman Donovan Units (LDU)=mean number of amastigotes per nucleus×mg organ weight."}, "Water solubility of OlPC": {"assay": "Water solubility of OlPC", "type": "physicochemical", "method": "The wet granulation process for OlPC solid dosage formulation requires that OlPC is solubilised in water. OlPC as a water solubility of 0.2 g/ml, which implies that for each tablet with 50 mg of OlPC at least 250 μl of water per tablet has to be incorporated in the dry powder mixture."}, "[6]": {"assay": "Dynamic vapor sorption, OlPC hygroscopicity", "type": "physicochemical", "conditions": "25° C.", "method": "Active pharmaceutical ingredients (API) frequently show a propensity to interact with water molecules, leading to absorption of moisture in their bulk structure or adsorption on their surfaces. Such behaviour can critically affect many pharmaceutical properties such as purity, solubility and chemical stability, density, surface area, powder flow, compact ability and crystal form. […] Dynamic vapor sorption (DVS) analyzes determine hygroscopicity profiles using a very small sample (≈15 mg), and provide both qualitative and quantitative information on water uptake.\nWater sorption/desorption isotherm of OlPC was determined gravimetrically at 25° C. (SD, 0.1° C.) using a DVS Advantage 1 with a Cahn D200 microbalance (Surface Measurement Systems, London, UK). Between 10 and 20 mg was weighed in the sample cup of the instrument, subjected to a drying step in order to bring the sample to a constant weight and subsequently exposed to increasing relative humidity (RH) (using 10% increments up to 90%). Following the sorption phase, the sample was exposed to a decreasing RH (in steps of 10% until 0% RH). Each step continued until equilibrium was reached (i.e. when the change in mass smaller than 0.002% per minute during at least 10 min) or until 6 h had passed. The mass change was recorded every minute with a resolution of ±0.1 μg."}, "[7]": {"assay": "Tolerability in hamsters, follow up experiment", "type": "in vivo", "conditions": "hamster, oral, single administrations as high as 100 mg/kg", "method": "as §2, §3"}, "[8]": {"conditions": "49.1 μmol/kg (20 mg/kg) orally for 5 days"}, "[9]": {"conditions": "98.1 μmol/kg (40 mg/kg) orally for 5 days"}}}
{"smiles": "CCCCCCCCCCCCCCCCOP(=O)([O-])OCC[N+](C)(C)C", "note": "[Miltefosine]", "values": [{"measurement": "Bone marrow % red", "setting": "[1]; [8]", "result": 39, "unit": "%"}, {"measurement": "Liver % red", "setting": "[1]; [8]", "result": 0, "unit": "%"}, {"measurement": "Spleen % red", "setting": "[1]; [8]", "result": 61, "unit": "%"}, {"measurement": "Liver % red", "setting": "[1]; 49.1 μmol/kg (20 mg/kg) orally for 5 days, listed as MIL", "result": "no reduction"}, {"measurement": "Bone marrow Mean ± SE of amastigotes per nucleus", "setting": "[1]; 49.1 μmol/kg orally for 5 days", "result": "1.0 ± 0.34", "unit": "amastigotes per nucleus"}, {"measurement": "Liver Mean ± SE of LDU", "setting": "[1]; 49.1 μmol/kg orally for 5 days", "result": "9017 ± 1489", "unit": "LDU"}, {"measurement": "Spleen Mean ± SE of LDU", "setting": "[1]; 49.1 μmol/kg orally for 5 days", "result": "188 ± 44", "unit": "LDU"}, {"measurement": "Bone marrow % red", "setting": "[1]; [9]", "result": 95, "unit": "%"}, {"measurement": "Liver % red", "setting": "[1]; [9]", "result": 65, "unit": "%"}, {"measurement": "Spleen % red", "setting": "[1]; [9]", "result": 99.2, "unit": "%"}, {"measurement": "Spleen % red", "setting": "[1]; 98.1 μmol/kg (40 mg/kg) orally for 5 days, listed as MIL", "result": 99, "unit": "%"}, {"measurement": "Bone marrow Mean ± SE of amastigotes per nucleus", "setting": "[1]; 98.1 μmol/kg orally for 5 days", "result": "0.1 ± 0.014", "unit": "amastigotes per nucleus"}, {"measurement": "Liver Mean ± SE of LDU", "setting": "[1]; 98.1 μmol/kg orally for 5 days", "result": "2764 ± 847", "unit": "LDU"}, {"measurement": "Spleen Mean ± SE of LDU", "setting": "[1]; 98.1 μmol/kg orally for 5 days", "result": "3.7 ± 1.67", "unit": "LDU"}]}
{"smiles": "CCCCCCCC/C=C\\CCCCCCCCOP(=O)([O-])OCC[N+](C)(C)C", "note": "[OlPC, oleyl phosphocholine]", "values": [{"measurement": "compatibility with hydroxypropylmethylcellulose", "setting": "[2]", "result": "no such incompatibility was observed"}, {"measurement": "compatibility with polyvinylpyrrolidone in solution", "setting": "[2]; unknown precipitate formed", "result": "incompatibility"}, {"measurement": "tolerance, side effects", "setting": "[3]", "result": "two of the six dogs treated experienced diarrhea during the first week post-treatment, and a third one had diarrhea and 1 episode of vomiting"}, {"measurement": "average clinical score (CS)", "setting": "L. infantum; day 15 (day 0: 19, range 14-31)", "result": "12 (range 7-16)"}, {"measurement": "average clinical score (CS)", "setting": "L. infantum; day 30 (day 0: 19, range 14-31)", "result": "5 (range 1-10)"}, {"measurement": "average clinical score (CS)", "setting": "L. infantum; day 90 (range 0-5; day 0: 19)", "result": 2}, {"measurement": "thermal degradation temperature", "setting": "[4]", "result": 159.27, "unit": "°C"}, {"measurement": "overall parasite suppression levels, single versus multiple administrations", "setting": "[5]", "result": "similar"}, {"measurement": "water solubility", "setting": "Water solubility of OlPC", "result": 200, "unit": "mg/mL"}, {"measurement": "water absorbed", "setting": "[6]; exposed to 90% RH", "result": 41.67, "unit": "%"}, {"measurement": "hygroscopicity", "setting": "[6]; water sorption and desorption profiles", "result": "very hygroscopic"}, {"measurement": "tolerability / signs of toxicity", "setting": "[7]", "result": "well tolerated"}]}
